The compounds below were run on male ddY mice (assay: Stamina improvement: swimming until exhaustion in a running water pool). Details: material 10 mg/ml, oral 10 ml/kg once a day for seven days; 10 animals per group; relative value, Comparative Example 21 (control) = 100.
Type: in vivo
Excerpt: The test solution was given to mice to check for the influence on the improvement of stamina. Five-week-old male ddY mice (purchased from Japan SLC Co. Ltd.) were raised, letting them be free to take solid feed (CE-2, Japan Clare Co. Ltd., Tokyo) and water (10 mice per group). […] After one week of preparatory raising and swim training, they were allowed to freely take ordinary solid feed and water. […] On the day just before start of giving the test solution and on the 7th day after start of giving the test solution, the experimental animals were let to swim until exhaustion in the pool (velocity at center: 23.6 cm/sec.) to measure the swimming duration and to obtain the elongation of the swimming duration in seven days.
In the case of `N=C(N)NCCC[C@H](N)C(=O)O` [Comparative Example 2, arginine], the “Elongation of swimming duration (%), without chicken extract powder” value is reported as 110%.
`C[N+](C)(C)CC(O)CC(=O)[O-]` (stereo not drawn) [Comparative Example 8, carnitine] was tested, and the “Elongation of swimming duration (%), without chicken extract powder” value was 110%.
In the case of `O=C(O)CC(O)(CC(=O)O)C(=O)O` [Comparative Example 7, citric acid], the “Elongation of swimming duration (%), without chicken extract powder” value is reported as 110%.
antocyanine [Comparative Example 12] was tested, and the “Elongation of swimming duration (%), without chicken extract powder” value was 120%.
With `CN(CC(=O)O)C(=N)N` [Comparative Example 1, creatine] the “Elongation of swimming duration (%), without chicken extract powder” value was 110%.
In the case of `C/C=C1/[C@H](O[C@@H]2O[C@H](CO)[C@@H](O)[C@H](O)[C@H]2O)OC=C(C(=O)OC)[C@H]1CC(=O)OCCc1ccc(O)c(O)c1` [Comparative Example 13, oleuropein], the “Elongation of swimming duration (%), without chicken extract powder” value is reported as 120%.
`O=C(O)CCCCC1CCSS1` (stereo not drawn) [Comparative Example 9, thioctic acid] was tested, and the “Elongation of swimming duration (%), without chicken extract powder” value was 110%.
For “proanthocyanidin [Comparative Example 11]”, the “Elongation of swimming duration (%), without chicken extract powder” value was 110%.
heme iron [Comparative Example 10] was tested, and the “Elongation of swimming duration (%), without chicken extract powder” value was 110%.
For tocotrienol [Comparative Example 15], the “Elongation of swimming duration (%), without chicken extract powder” value was 120%.
In the case of `Cn1c(=O)c2c(ncn2C)n(C)c1=O` [Comparative Example 6, caffeine], the “Elongation of swimming duration (%), without chicken extract powder” value is reported as 110%.
In the case of `COC1=C(OC)C(=O)C(C/C=C(\C)CC/C=C(\C)CC/C=C(\C)CC/C=C(\C)CC/C=C(\C)CC/C=C(\C)CC/C=C(\C)CC/C=C(\C)CC/C=C(\C)CCC=C(C)C)=C(C)C1=O` [Comparative Example 14, ubiquinone (CoQ10)], the “Elongation of swimming duration (%), without chicken extract powder” value is reported as 110%.

Reference: patent publication US20090087495A1, “Food for Improving Motor Function” (Nippon Meat Packers, Inc., priority 2005, published 2009)
